Results from patent US4999424A, “GAR transformylase inhibitor” (The Pennsylvania State University, priority 1988, dated 1991).

Legend:
E. coli GAR TFase [1] = target: T1, E. coli GAR TFase (Escherichia coli, UniProt P08179); test: Fluorescence titration, dissociation constant for E. coli GAR TFase; format: binding; conditions: average from three wavelengths (396, 400, 405 nm); standard error about 50 pM; 11 nM inhibitor, excitation 275 nm; read-out: thermodynamic dissociation constant, KD
T1 construct: made in house; host or cells: E. coli TX393 with multicopy plasmid pJS85, or E. coli TX635 with lambda pL plasmid pJS119 or pJS167
T1 sequence (P08179 1-212): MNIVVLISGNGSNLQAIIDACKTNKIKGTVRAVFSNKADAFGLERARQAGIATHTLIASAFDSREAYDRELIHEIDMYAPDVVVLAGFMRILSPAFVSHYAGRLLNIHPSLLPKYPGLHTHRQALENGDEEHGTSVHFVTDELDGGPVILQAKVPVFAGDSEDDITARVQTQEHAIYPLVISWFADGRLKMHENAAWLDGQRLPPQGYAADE
Method: The thermodynamic dissociation constant, KD, for the E.β-TGDDF complex was measured by following the enhancement of the inhibitor's 395 nm fluorescence (excitation at 275 nm) upon binding to GAR TFase. A concentrated E. coli GAR TFase solution was added to an 11 nM solution of purified β-TGDDF; for each addition, the fluorescence at three different wavelengths (396, 400, and 405 nm) was measured. Fluorescence titration data was analyzed by the method of Taira and Benkovic, J. Med. Chem., 31, 129-137 (1988).
(§1) In analyzing the biological activity of the compounds of the present invention, GAR TFase from E. coli was used. This enzyme behaves like the mammalian and avian enzyme with respect to substrate specificity, yet is a simple and effective system having only one biological activity. That is, unlike the avian trifunctional GAR TFase, the E. coli species has a sole function. This follows from the genetic evidence of Smith and Daum, J. Biol. Chem., 262, 10565-10569 (1987) as w®11 as the work of Schrimsher et al., Biochemistry, 25, 4366-4371 (1986) who have shown that […] from E. coli is a monofunctional protein, whereas, in chicken it belongs to a trifunctional protein containing, the activates: GAR SYNthase, GAR TFase, and AIR SYNthase.
The E. coli GAR TFase binding constants for the compounds of the present invention and other folate analogs are shown in Table I below: […]

GAR TFase (L1210) = target: T2, GAR TFase (L1210) (Mus musculus, UniProt Q64737); test: L1210 GAR TFase inhibition; format: biochemical; conditions: for Mode of inhibition: L1210 GAR TFase
T2 construct: GAR TFase activity is the C-terminal domain of trifunctional Gart
T2 sequence (Q64737 2-1010): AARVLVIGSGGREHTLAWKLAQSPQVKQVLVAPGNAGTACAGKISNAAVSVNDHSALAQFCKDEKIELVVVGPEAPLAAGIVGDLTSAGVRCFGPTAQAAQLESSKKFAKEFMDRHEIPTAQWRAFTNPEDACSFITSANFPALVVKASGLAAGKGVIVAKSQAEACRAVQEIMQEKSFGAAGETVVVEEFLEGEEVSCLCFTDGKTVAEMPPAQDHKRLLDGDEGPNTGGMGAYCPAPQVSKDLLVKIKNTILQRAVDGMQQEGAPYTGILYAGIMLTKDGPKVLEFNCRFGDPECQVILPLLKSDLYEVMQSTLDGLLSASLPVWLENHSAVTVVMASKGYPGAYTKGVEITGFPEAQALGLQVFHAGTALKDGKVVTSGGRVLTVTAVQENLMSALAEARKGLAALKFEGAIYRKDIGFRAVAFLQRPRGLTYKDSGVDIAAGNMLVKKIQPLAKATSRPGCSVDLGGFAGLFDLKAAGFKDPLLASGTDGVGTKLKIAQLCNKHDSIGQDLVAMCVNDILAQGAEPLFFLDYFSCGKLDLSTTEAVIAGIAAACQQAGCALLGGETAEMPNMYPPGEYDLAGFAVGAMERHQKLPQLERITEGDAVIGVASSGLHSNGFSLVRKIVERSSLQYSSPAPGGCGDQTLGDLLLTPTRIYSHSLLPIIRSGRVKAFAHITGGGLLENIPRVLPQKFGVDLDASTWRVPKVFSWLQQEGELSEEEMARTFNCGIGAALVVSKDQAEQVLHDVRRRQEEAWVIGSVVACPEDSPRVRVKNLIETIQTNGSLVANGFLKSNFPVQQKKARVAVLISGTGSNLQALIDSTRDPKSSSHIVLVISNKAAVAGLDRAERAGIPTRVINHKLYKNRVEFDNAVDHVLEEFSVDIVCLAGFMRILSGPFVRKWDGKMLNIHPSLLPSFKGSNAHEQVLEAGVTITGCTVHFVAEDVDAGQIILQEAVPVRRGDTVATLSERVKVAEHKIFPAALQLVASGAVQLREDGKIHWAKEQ
Method: All assays were carried out by following the increase of 5,8-dideazafolate absorbence at 295 nm in buffered medium at 26° C. To initiate the reaction, enzyme (1 nM final concentration) was added to a mixture of saturating substrates and variable amounts of inhibitor. […] See, Morrison, Trends Biochem. Sc., 7, 102 (1982) and Morrison, et al., Adv. Enzymology, Relat. Areas Mol. Biol., 57, 201-301 (1987).
The specificity of beta-TGDDF for GAR TFase from species other than E. coli was assayed in a general manner by measuring the activity of GAR TFase at a concentration of 1 nM from avian, HeLa, and L121? sources in the presence of 20 nM beta-TGDDF.
This test, was conducted using the same [I]/[E]ratios as stated previously.
E. coli GAR TFase was prepared and purified as described below. L1210 and HeLa GAR TFase were purified according to published procedures. AICAR TFase was prepared according to published procedures.

E. coli GAR TFase [2] = target: T1, E. coli GAR TFase; test: E. coli GAR TFase inhibition/activity assay (5,8-dideazafolate absorbance at 295 nm); format: biochemical; conditions: E. coli GAR TFase, 26° C, 1 nM enzyme, saturating substrates
Method: All assays were carried out by following the increase of 5,8-dideazafolate absorbence at 295 nm in buffered medium at 26° C. To initiate the reaction, enzyme (1 nM final concentration) was added to a mixture of saturating substrates and variable amounts of inhibitor. A characteristic family of curves was obtained, showing slow, tight-binding inhibition. See, Morrison, Trends Biochem. Sc., 7, 102 (1982) and Morrison, et al., Adv. Enzymology, Relat. Areas Mol. Biol., 57, 201-301 (1987).
as §1
The E. coli GAR TFase binding constants for the compounds of the present invention and other folate analogs are shown in Table I below:
Table II illustrates the specificity of beta-TGDDF for GAR TFase in comparison with other reduced-folate utilizing enzymes. This test, was conducted using the same [I]/[E]ratios as stated previously.

Nc1nc2ccc(CN(C(=O)CSCC(=O)N[C@@H]3O[C@H](COP(=O)(O)O)[C@@H](O)[C@H]3O)c3ccc(C(=O)N[C@@H](CCC(=O)O)C(=O)O)cc3)cc2c(=O)[nH]1 [beta-TGDDF, N^10-[5'-phosphoribosyl-1'-β-amino-carbonylmethyl-1-thioacetyl]-5,8-dideazafolate]
Kd (E. coli GAR TFase [1]): 0.25 nM | Extent of inhibition (GAR TFase (L1210); 20 nM beta-TGDDF, 1 nM enzyme): inhibited by roughly the same magnitude | Mode of inhibition (GAR TFase (L1210)): inhibition of a slow, tight binding nature | Mode of inhibition (GAR TFase (L1210); listed as Beta-TGDDF): slow, tight-binding inhibitor | Mode of inhibition (E. coli GAR TFase [2]): slow, tight-binding inhibitor
